# Experimental data as given in ChEMBL document CHEMBL3351697, “Recent advances in the structural library of functionalized quinazoline and quinazolinone scaffolds: synthetic approaches and multifarious applications” (Eur J Med Chem, 2014).
# How the values were obtained:
# Escherichia coli = assay: Antibacterial activity against Escherichia coli MTCC 443 assessed as growth inhibition at 100 ug/ml by agar well diffusion method; type: functional; conditions: read-out: GI
# [1] = test system: Staphylococcus epidermidis; assay: Antibacterial activity against Staphylococcus epidermidis MTCC 435 assessed as growth inhibition at 100 ug/ml by agar well diffusion method; type: functional; conditions: read-out: GI
# Staphylococcus aureus = assay: Antibacterial activity against Staphylococcus aureus MTCC 96 assessed as growth inhibition at 100 ug/ml by agar well diffusion method; type: functional; conditions: read-out: GI
# Pseudomonas aeruginosa = assay: Antibacterial activity against Pseudomonas aeruginosa MTCC 741 assessed as growth inhibition at 100 ug/ml by agar well diffusion method; type: functional; conditions: read-out: GI
# PC-3 [2] = assay: Induction of apoptosis in human PC3 cells at 10 uM after 72 hrs by Hoechst 33258 staining; type: functional
# [3] = Antiproliferative activity against human BGC823 cells by MTT assay; type: functional, cell-based; conditions: BGC-823
# Bcap37 [4] = assay: Antiproliferative activity against human Bcap37 cells by MTT assay; type: functional, cell-based
# Bcap37 [5] = assay: Antiproliferative activity against human Bcap37 cells at 10 uM by MTT assay; type: functional
# [6] = Antiproliferative activity against human PC3 cells at 10 uM by MTT assay; type: functional; conditions: PC-3
# [7] = Antiproliferative activity against human BGC823 cells at 10 uM by MTT assay; type: functional; conditions: BGC-823
# [8] = Antiproliferative activity against human PC3 cells by MTT assay; type: functional, cell-based; conditions: PC-3
# PC-3 [9] = assay: Induction of apoptosis in human PC3 cells at 1 uM after 72 hrs by Hoechst 33258 staining; type: functional
# [10] = target: Proto-oncogene tyrosine-protein kinase Src (Homo sapiens, UniProt P12931); assay: Inhibition of c-Src (unknown origin)
# A549 = assay: Antiproliferative activity against human A549 cells; type: functional, cell-based
# RAW264.7 = assay: Antiinflammatory activity in mouse RAW264.7 cells assessed as inhibition of LPS-induced nitric oxide production at 20 ug/ml after 24 hrs by Griess method; type: functional; conditions: RAW264.7, 24 h
# [11] = test system: Mycobacterium tuberculosis; assay: Antitubercular activity against Mycobacterium tuberculosis H37Rv assessed as growth inhibition; type: functional
# MCF7 [12] = assay: Antiproliferative activity against human MCF7 cells
# [13] = Cytotoxicity against human HCT116 cells assessed as cell viability after 24 hrs by MTT assay; type: functional, cell-based; conditions: HCT-116, 24 h
# HepG2 = assay: Cytotoxicity against human HepG2 cells assessed as cell viability after 24 hrs by MTT assay; type: functional, cell-based; conditions: HepG2, 24 h
# [14] = target: Vascular endothelial growth factor receptor 2 (Homo sapiens, UniProt P35968); assay: Inhibition of VEGFR2 (unknown origin)
# [15] = Inhibition of Mycobacterium tuberculosis GlmU
# Rattus norvegicus = assay: Antiinflammatory activity in rat assessed as inhibition of carrageenan-induced paw edema at 25 to 200 mg/kg, po administered 1 hr before carrageenan challenge measured at 6 hrs; type: functional; parameters: scale not given: the % may be the effect or the level left; conditions: dose mg/kg 25-200
# SNB-75 = assay: Growth inhibition of human SNB75 cells after 48 hrs by SRB assay; type: functional; conditions: SNB-75, 48 h
# MCF7 [16] = assay: Antiproliferative activity against human MCF7 cells after 48 hrs by SRB assay; type: functional, cell-based
# MCF7 [17] = assay: Potency index, ratio of cisplatin IC50 to compound IC50 for human MCF7 cells; type: functional
# [18] = Antiproliferative activity against human NCI60 cells; type: functional
# [19] = Inhibition of alpha-glucosidase (unknown origin); parameters: species or system Homo sapiens
# [20] = Protective index, ratio of neurotoxicity in mouse by rotarod test to ED50 for inhibition of maximal electroshock-induced seizures in mouse; type: toxicity, organism-based; conditions: in vivo, read-out: PI
# M21 = assay: Antiproliferative activity against human M21 cells; type: functional, cell-based
# [21] = Antiproliferative activity against human CH27 cells; type: functional, cell-based
# [22] = Antiproliferative activity against human Hep3B cells; type: functional, cell-based, Hep 3B2
# [23] = Antiproliferative activity against human HSC3 cells; type: functional, cell-based; conditions: HSC-3
# [24] = Antiproliferative activity against human H460 cells; type: functional, cell-based; conditions: NCI-H460
# Vascular endothelial growth factor receptor 2, sequence (P35968 whole entry): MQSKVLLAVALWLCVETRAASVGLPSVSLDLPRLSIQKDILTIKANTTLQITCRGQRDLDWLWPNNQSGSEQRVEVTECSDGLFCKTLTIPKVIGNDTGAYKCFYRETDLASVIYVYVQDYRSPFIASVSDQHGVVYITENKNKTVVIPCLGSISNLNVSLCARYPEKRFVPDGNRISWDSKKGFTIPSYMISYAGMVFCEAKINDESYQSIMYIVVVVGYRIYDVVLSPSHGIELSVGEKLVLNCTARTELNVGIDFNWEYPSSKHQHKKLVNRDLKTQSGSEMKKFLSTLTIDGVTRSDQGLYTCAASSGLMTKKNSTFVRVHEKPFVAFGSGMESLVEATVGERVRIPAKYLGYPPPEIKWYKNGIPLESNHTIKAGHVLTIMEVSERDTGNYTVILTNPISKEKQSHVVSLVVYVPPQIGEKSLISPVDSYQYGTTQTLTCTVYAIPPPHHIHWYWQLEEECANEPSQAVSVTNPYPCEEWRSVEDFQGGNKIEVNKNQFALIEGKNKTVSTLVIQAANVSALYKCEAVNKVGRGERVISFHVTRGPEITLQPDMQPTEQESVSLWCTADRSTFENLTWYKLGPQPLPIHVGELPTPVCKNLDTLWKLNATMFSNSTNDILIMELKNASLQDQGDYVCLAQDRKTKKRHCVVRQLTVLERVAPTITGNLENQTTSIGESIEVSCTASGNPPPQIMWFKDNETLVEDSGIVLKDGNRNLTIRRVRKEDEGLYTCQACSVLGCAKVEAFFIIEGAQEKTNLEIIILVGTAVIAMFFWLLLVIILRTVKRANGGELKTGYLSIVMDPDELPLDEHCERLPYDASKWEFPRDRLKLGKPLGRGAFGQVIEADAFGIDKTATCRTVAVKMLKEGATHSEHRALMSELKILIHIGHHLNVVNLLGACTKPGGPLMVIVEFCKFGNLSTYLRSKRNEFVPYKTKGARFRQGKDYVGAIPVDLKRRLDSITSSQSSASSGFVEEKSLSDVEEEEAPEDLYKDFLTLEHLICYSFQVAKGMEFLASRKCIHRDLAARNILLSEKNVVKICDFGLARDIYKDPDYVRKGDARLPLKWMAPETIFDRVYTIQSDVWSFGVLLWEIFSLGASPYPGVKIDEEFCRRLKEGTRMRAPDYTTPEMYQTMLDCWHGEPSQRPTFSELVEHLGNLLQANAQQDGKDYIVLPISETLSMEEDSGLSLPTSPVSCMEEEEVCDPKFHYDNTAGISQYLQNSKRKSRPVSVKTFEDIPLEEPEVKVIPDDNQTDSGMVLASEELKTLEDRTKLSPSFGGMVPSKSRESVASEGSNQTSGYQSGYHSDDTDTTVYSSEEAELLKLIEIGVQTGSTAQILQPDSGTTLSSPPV
# Proto-oncogene tyrosine-protein kinase Src, sequence (P12931 2-536 limits assumed): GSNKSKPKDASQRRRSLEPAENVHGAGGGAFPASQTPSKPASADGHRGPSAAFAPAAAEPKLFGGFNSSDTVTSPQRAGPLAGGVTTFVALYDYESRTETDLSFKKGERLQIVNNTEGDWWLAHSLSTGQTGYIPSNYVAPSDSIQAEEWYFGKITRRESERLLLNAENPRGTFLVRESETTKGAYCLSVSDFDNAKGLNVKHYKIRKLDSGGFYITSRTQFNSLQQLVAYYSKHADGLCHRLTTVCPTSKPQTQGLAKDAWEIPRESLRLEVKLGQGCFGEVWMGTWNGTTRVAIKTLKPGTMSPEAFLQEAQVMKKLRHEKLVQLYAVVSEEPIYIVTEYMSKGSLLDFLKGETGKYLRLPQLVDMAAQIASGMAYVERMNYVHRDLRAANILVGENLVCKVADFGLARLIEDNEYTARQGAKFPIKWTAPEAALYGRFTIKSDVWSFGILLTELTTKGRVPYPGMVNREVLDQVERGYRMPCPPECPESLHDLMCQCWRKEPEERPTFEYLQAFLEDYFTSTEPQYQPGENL
compound,measurement,setting,value
Cc1nc2c(I)cc(I)cc2c(=O)n1-c1ccc(S(=O)(=O)Nc2ncccn2)cc1,inhibition of growth at 100 µg/mL,Escherichia coli,61.9%
same,inhibition of growth at 100 µg/mL,[1],61.9%
same,inhibition of growth at 100 µg/mL,Staphylococcus aureus,61.9%
same,inhibition of growth at 100 µg/mL,Pseudomonas aeruginosa,61.9%
COc1cc2ncnc(NCCc3ccccc3F)c2c(OC)c1OC,Activity,PC-3 [2],31.8%
same,IC50,[3],3.2 µM
same,IC50,Bcap37 [4],3.1 µM
same,inhibition at 10 µM,Bcap37 [5],90.4%
same,inhibition at 10 µM,[6],90.6%
same,inhibition at 10 µM,[7],88.2%
same,IC50,[8],6.2 µM
same,Activity,PC-3 [9],11.6%
O=C(Cc1cccc(Br)c1)Nc1ccc2ncnc(Nc3ccc(Br)cc3)c2c1,IC50,[10],27.3 nM
same,IC50,A549,3.42 µM
CSc1nc2nc(Cl)c3ccccc3n2n1,inhibition at 20 µg/mL,RAW264.7,50%
NNC(=O)c1ccncc1 [ISONIAZID],growth inhibition (GI),[11],99%
COc1cc2ncnc(Nc3cccc(Br)c3)c2cc1OC,IC50,[8],8.3 µM
COc1cc2nccc(Oc3ccc(NC(=O)Nc4cc(C)on4)c(Cl)c3)c2cc1OC [TIVOZANIB],IC50,MCF7 [12],380 nM
CO[C@H]1/C=C/O[C@@]2(C)Oc3c(C)c(O)c4c(O)c(c(/C=N/N5CCN(C)CC5)c(O)c4c3C2=O)NC(=O)/C(C)=C\C=C\[C@H](C)[C@H](O)[C@@H](C)[C@@H](O)[C@@H](C)[C@H](OC(C)=O)[C@@H]1C [RIFAMPIN],growth inhibition (GI),[11],99%
CCOc1nc2nc(SC)nn2c2ccccc12,IC50,[13],17.4 µg/mL
same,IC50,HepG2,19.2 µg/mL
O=C(Nc1ccc(Nc2ccc([N+](=O)[O-])c3ncnc(O)c23)cc1)Nc1ccc(C(F)(F)F)cc1Cl,IC50,[14],12 nM
O=c1c2cc(Br)cc(Br)c2nc(-c2ccccc2)n1-c1ccc(C2=NN(c3ccccc3)C(Cc3ccccc3)C2)cc1 (centres undefined),IC50,MCF7 [12],1.7 µg/mL
COc1cc2ncnc(Nc3ccc(NC(=O)c4cccc(O)c4)cc3)c2cc1OC,IC50,[15],74 µM
CC(=O)NS(=O)(=O)c1ccc(-n2c(C)nc3c(I)cc(I)cc3c2=O)cc1,Activity,Rattus norvegicus,74%
O=c1c2ccc(Cl)cc2nc(-c2ccccc2)n1/N=C/c1ccc(Cl)cc1,GI50,SNB-75,2570 nM
same,CC50,SNB-75; read-out: pLC50 (the source's name) (converted),39.8 µM
same,TGI,SNB-75; read-out: pTGI (converted),7.59 µM
O=C1CCC(=O)N1n1c(COc2ccccc2)nc2ccc(I)cc2c1=O,IC50,MCF7 [16],5.49 µM
N#Cc1c(F)c(F)c2nc(-c3ccc(C(F)(F)F)cc3)nc(N)c2c1F,Ratio IC50,MCF7 [17],<=40
CSc1nc2n(n1)c1ccccc1c1nnc(-c3ccncc3)n12,IC50,[13],11.5 µg/mL
same,IC50,HepG2,9.34 µg/mL
COc1cccc2c1C(=O)c1c(O)c3c(c(O)c1C2=O)C[C@@](O)(C(=O)CO)C[C@@H]3O[C@H]1C[C@H](N)[C@H](O)[C@H](C)O1 [DOXORUBICIN],IC50,MCF7 [16],5.49 µM
COc1cc2c(=O)n(-c3ccccc3Cl)c(=O)[nH]c2cc1NC(=O)NCCc1ccccc1Cl,GI50,[18],363 nM
O=c1c2cc(-c3c(Cl)cccc3Cl)ccc2nc(C2CC2)n1Cc1cccnc1,IC50,[19],< 10 µM
Nc1nnc2c3ccccc3nc(-c3ccccc3Br)n12,selectivity ratio,[20],5.8
O=c1[nH]c(-c2ccc3ccccc3c2)nc2ccc(N3CCCC3)cc12,IC50,M21,30 nM
same,IC50,[21],50 nM
same,IC50,[22],1350 nM
same,IC50,[23],40 nM
same,IC50,[24],80 nM
Cc1ncc([N+](=O)[O-])n1CCOc1ncnc2ccccc12,IC50,[14],2.72 nM
same,IC50,MCF7 [12],350 nM
CCn1c(=O)c2ccccc2n2nc(SC)nc12,inhibition at 20 µg/mL,RAW264.7,50%
Cc1noc(NS(=O)(=O)c2ccc(-n3c(C)nc4c(I)cc(I)cc4c3=O)cc2)c1C,inhibition of growth at 100 µg/mL,Escherichia coli,61.9%
same,inhibition of growth at 100 µg/mL,[1],61.9%
same,inhibition of growth at 100 µg/mL,Staphylococcus aureus,61.9%
same,inhibition of growth at 100 µg/mL,Pseudomonas aeruginosa,61.9%
COc1cc2c(=O)n(-c3ccccc3)c(=O)[nH]c2cc1NC(=O)NCCc1ccccc1Cl,GI50,[18],794 nM
COc1ccc2nc(-c3ccc4ccccc4c3)[nH]c(=O)c2c1,IC50,M21,90 nM
same,IC50,[21],90 nM
same,IC50,[22],1940 nM
same,IC50,[23],150 nM
same,IC50,[24],70 nM
